Measured values reported in patent EP4588510A1, “OPENING/CLOSING CONTROL DEVICE FOR TARGET FORCE-SENSITIVE ION CHANNEL THAT GENERATES SOUND WAVE PATTERN BY USING RESONANCE FREQUENCY(IES), AND BRAIN FUNCTION CONTROL DEVICE” (UIF (University Industry Foundation), Yonsei University, priority 2022, dated 2024).

Molecular target: T1, Piezo1 ion channel (Mus musculus, UniProt E2JF22)
T1 construct: expressed in transfected cells; host or cells: HEK293
Assay: c-Fos immunostaining of cellular activation in HEK293 cells expressing Piezo1
Type: cell-based
Conditions: Yoda1 10 µM, Fig. 2, Group F
Procedure: As a model system, HEK293 cells were utilized, and the Piezo1 ion channel, a mechanosensitive ion channel, was expressed in these cells to enable responsiveness to mechanical forces. To achieve this, 5×10^5 cells were seeded in a 60 mm dish, and 5 µg of CMV-Piezo1 plasmid was transfected using Lipofectamine 3000, following the standard protocol.
HEK293 cells expressing Piezo1 were then exposed to two different ultrasound frequencies, 2.0 MHz and 6.25 MHz, for 10 minutes, corresponding to the resonance frequency(ies) of Piezo1 in HEK293 cells. The objective was to observe differences in cellular activation based on frequency. The extent of cellular activation was quantified by immunostaining for c-Fos, a reporter of intracellular calcium ion influx, and the number of activated cells was represented as a percentage.

T1 sequence (E2JF22 whole entry): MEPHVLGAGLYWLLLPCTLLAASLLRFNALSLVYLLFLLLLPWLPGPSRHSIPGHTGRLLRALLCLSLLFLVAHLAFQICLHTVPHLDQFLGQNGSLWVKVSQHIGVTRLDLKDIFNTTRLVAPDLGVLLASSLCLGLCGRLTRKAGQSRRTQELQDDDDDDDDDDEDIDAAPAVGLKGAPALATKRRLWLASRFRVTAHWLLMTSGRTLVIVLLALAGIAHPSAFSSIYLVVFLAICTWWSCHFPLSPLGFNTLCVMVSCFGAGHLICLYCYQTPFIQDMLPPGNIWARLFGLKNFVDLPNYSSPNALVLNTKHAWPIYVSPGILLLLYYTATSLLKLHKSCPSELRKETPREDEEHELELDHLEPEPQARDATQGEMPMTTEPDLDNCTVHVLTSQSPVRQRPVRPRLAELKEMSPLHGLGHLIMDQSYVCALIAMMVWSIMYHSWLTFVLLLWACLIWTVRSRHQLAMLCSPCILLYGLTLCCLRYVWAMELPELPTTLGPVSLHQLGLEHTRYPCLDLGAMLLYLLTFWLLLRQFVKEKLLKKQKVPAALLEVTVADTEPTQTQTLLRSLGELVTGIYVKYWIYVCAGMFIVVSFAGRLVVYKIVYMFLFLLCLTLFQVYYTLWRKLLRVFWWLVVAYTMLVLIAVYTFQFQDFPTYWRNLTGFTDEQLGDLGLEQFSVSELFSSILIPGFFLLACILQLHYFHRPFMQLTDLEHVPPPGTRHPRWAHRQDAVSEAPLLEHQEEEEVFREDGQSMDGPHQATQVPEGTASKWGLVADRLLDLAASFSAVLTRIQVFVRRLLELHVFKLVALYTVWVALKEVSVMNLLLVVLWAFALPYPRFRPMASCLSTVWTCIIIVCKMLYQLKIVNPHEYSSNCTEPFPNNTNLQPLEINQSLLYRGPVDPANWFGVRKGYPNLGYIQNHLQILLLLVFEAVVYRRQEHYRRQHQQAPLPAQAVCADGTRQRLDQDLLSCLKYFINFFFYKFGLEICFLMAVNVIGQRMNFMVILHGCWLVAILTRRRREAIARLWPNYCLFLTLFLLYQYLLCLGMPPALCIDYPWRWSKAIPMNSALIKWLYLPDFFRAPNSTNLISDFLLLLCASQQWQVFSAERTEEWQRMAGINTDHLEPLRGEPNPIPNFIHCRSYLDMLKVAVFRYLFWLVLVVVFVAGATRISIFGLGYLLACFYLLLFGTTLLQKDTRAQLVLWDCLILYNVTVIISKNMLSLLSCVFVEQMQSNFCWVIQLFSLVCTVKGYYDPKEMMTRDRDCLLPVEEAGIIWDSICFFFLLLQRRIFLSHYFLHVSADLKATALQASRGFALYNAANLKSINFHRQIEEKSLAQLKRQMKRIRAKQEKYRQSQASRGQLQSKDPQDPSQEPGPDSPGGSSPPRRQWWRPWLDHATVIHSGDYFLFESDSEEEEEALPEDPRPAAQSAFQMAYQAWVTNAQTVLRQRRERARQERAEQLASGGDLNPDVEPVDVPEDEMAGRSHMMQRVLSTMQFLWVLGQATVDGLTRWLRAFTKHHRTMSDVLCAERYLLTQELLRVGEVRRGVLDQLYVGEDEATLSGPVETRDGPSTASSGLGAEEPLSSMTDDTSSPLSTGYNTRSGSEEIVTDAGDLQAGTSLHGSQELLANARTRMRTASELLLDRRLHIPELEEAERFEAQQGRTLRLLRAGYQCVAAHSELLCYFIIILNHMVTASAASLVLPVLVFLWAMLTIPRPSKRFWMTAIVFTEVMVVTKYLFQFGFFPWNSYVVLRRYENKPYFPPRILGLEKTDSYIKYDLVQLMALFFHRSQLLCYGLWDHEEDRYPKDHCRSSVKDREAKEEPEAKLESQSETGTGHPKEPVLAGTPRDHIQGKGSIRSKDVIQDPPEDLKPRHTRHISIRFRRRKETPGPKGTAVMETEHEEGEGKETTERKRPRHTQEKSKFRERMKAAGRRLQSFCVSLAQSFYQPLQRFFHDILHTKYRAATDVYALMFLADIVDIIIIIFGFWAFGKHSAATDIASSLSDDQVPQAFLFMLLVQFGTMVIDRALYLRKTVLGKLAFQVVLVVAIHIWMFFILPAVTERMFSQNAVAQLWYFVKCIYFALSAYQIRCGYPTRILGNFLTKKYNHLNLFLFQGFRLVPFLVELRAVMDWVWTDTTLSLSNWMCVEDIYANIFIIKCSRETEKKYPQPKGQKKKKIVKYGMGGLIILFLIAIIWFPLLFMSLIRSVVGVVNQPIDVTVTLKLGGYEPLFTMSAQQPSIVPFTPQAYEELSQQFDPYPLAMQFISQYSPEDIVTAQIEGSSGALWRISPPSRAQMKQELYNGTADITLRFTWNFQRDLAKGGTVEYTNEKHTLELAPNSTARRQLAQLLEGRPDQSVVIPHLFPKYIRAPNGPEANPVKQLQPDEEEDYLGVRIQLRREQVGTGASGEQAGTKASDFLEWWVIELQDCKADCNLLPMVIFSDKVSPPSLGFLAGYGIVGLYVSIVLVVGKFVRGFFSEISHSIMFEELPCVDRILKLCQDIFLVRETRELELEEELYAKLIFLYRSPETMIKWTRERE

## Clc1cccc(Cl)c1CSc1nnc(-c2cnccn2)s1 [Yoda1]
  activation (percentage of activated cells, c-Fos): 74%
